Data from ChEMBL document CHEMBL2169789, “Potent HGF/c-Met axis inhibitors from Eucalyptus globulus: the coupling of phloroglucinol and sesquiterpenoid is essential for the activity” (J Med Chem, 2012).
The source made the active and inactive calls. No cut-off for these calls is given here.

Experiments:
[1] = biological target: T1, Hepatocyte growth factor receptor (Homo sapiens, UniProt P08581); assay: Inhibition of c-MET assessed as inhibition of HGF-induced phosphorylation at 5 uM by Western blotting analysis
[2] = biological target: Hepatocyte growth factor receptor (Mus musculus) (UniProt P16056); assay: Inhibition of c-MET in mouse NIH3T3 cells assessed as reduction of TPR-Met phosphorylation at 20 uM after 2 hrs by Western blotting analysis; format: cell-based
[3] = biological target: T1, Hepatocyte growth factor receptor; assay: Inhibition of HGF-induced phosphorylation of c-MET in human NCI-H441 cells after 2 hrs by Western blotting analysis; format: cell-based
[4] = biological target: T1, Hepatocyte growth factor receptor; assay: Inhibition of HGF-induced phosphorylation of c-MET in human DU145 cells at 5 uM after 2 hrs by Western blotting analysis; format: cell-based; conditions: DU-145
[5] = biological target: Hepatocyte growth factor receptor (Canis lupus familiaris) (UniProt Q75ZY9); assay: Inhibition of c-MET in MDCK cells assessed as inhibition of HGF-induced urokinase activity after 24 hrs; format: cell-based
[6] = biological target: T1, Hepatocyte growth factor receptor; assay: Inhibition of HGF-induced phosphorylation of c-MET in human A549 cells at 5 uM after 2 hrs by Western blotting analysis; format: cell-based
[7] = biological target: Hepatocyte growth factor receptor (Canis lupus familiaris) (UniProt Q75ZY9); assay: Inhibition of c-MET in MDCK cells assessed as inhibition of HGF-induced urokinase activity at 10 uM after 24 hrs; format: cell-based
[8] = biological target: T1, Hepatocyte growth factor receptor; assay: Inhibition of c-MET in human MKN45 cells assessed as reduction of phosphorylation at 20 uM after 2 hrs by Western blotting analysis; format: cell-based; conditions: MKN-45
[9] = biological target: Hepatocyte growth factor receptor (Canis lupus familiaris) (UniProt Q75ZY9); assay: Inhibition of c-MET in MDCK cells assessed as inhibition of HGF-induced cell motility at 10 uM by wound healing assay; format: cell-based
[10] = biological target: Hepatocyte growth factor receptor (Canis lupus familiaris) (UniProt Q75ZY9); assay: Inhibition of c-MET in MDCK cells assessed as inhibition of HGF-induced cell scattering after 24 hrs by microscopic analysis; format: cell-based
[11] = biological target: Hepatocyte growth factor receptor (Canis lupus familiaris) (UniProt Q75ZY9); assay: Inhibition of c-MET in MDCK cells assessed as inhibition of HGF-induced cell motility by wound healing assay; format: cell-based
[12] = biological target: T1, Hepatocyte growth factor receptor; assay: Inhibition of c-MET by ELISA assay
[13] = biological target: T1, Hepatocyte growth factor receptor; assay: Inhibition of HGF-induced phosphorylation of c-MET in human A549 cells after 2 hrs by Western blotting analysis; format: cell-based
[14] = biological target: T1, Hepatocyte growth factor receptor; assay: Inhibition of HGF-induced phosphorylation of c-MET in human NCI-H441 cells at 5 uM after 2 hrs by Western blotting analysis; format: cell-based
[15] = biological target: Hepatocyte growth factor receptor (Canis lupus familiaris) (UniProt Q75ZY9); assay: Inhibition of HGF-induced phosphorylation of c-MET in MDCK cells at 5 uM after 2 hrs by Western blotting analysis; format: cell-based
[16] = biological target: Hepatocyte growth factor receptor (Canis lupus familiaris) (UniProt Q75ZY9); assay: Inhibition of c-MET in MDCK cells assessed as inhibition of HGF-induced cell scattering at 10 uM after 24 hrs by microscopic analysis; format: cell-based
[17] = biological target: T1, Hepatocyte growth factor receptor; assay: Inhibition of HGF-induced phosphorylation of c-MET in human DU145 cells after 2 hrs by Western blotting analysis; format: cell-based; conditions: DU-145
[18] = biological target: Hepatocyte growth factor receptor (Canis lupus familiaris) (UniProt Q75ZY9); assay: Inhibition of HGF-induced phosphorylation of c-MET in MDCK cells after 2 hrs by Western blotting analysis; format: cell-based
[19] = biological target: Hepatocyte growth factor receptor (Canis lupus familiaris) (UniProt Q75ZY9); assay: Inhibition of c-MET in MDCK cells assessed as inhibition of HGF-induced branching morphogenesis after 5 days by microscopic analysis; format: cell-based

T1 sequence (P08581 whole entry): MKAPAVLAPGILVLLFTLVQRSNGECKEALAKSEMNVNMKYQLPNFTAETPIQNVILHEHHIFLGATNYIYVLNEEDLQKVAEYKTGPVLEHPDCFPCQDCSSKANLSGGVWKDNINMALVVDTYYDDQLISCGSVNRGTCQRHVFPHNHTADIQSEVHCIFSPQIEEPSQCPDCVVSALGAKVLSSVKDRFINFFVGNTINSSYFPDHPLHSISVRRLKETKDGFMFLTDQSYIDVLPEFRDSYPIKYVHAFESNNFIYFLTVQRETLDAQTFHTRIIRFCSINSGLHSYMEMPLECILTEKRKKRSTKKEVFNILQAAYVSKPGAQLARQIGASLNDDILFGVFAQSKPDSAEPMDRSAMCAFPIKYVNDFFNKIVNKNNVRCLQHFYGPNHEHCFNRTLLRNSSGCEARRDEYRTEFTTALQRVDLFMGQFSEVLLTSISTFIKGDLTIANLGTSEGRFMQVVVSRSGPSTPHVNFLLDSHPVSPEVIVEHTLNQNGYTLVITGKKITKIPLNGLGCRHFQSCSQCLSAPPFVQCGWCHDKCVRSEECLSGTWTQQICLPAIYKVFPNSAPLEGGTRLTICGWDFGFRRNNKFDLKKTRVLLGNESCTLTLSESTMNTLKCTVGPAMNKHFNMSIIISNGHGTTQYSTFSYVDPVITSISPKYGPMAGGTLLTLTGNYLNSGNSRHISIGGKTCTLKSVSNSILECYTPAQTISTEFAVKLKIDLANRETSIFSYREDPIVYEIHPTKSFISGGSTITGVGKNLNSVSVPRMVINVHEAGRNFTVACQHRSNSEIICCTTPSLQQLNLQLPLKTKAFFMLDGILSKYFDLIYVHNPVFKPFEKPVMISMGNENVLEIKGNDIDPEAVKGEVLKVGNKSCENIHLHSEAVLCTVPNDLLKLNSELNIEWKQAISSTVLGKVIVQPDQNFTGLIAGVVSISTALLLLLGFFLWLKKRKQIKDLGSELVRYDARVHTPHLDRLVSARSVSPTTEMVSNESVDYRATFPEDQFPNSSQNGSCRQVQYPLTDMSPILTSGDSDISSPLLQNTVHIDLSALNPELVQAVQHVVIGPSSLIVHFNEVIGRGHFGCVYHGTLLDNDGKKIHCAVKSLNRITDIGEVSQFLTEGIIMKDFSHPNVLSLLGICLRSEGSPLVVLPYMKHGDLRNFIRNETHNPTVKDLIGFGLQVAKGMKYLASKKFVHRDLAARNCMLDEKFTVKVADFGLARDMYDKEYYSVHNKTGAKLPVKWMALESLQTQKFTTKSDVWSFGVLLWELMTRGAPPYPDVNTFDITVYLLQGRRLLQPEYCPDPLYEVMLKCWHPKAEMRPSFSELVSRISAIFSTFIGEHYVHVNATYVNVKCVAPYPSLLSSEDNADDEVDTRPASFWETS
Hepatocyte growth factor receptor (Canis lupus familiaris), sequence (Q75ZY9 whole entry): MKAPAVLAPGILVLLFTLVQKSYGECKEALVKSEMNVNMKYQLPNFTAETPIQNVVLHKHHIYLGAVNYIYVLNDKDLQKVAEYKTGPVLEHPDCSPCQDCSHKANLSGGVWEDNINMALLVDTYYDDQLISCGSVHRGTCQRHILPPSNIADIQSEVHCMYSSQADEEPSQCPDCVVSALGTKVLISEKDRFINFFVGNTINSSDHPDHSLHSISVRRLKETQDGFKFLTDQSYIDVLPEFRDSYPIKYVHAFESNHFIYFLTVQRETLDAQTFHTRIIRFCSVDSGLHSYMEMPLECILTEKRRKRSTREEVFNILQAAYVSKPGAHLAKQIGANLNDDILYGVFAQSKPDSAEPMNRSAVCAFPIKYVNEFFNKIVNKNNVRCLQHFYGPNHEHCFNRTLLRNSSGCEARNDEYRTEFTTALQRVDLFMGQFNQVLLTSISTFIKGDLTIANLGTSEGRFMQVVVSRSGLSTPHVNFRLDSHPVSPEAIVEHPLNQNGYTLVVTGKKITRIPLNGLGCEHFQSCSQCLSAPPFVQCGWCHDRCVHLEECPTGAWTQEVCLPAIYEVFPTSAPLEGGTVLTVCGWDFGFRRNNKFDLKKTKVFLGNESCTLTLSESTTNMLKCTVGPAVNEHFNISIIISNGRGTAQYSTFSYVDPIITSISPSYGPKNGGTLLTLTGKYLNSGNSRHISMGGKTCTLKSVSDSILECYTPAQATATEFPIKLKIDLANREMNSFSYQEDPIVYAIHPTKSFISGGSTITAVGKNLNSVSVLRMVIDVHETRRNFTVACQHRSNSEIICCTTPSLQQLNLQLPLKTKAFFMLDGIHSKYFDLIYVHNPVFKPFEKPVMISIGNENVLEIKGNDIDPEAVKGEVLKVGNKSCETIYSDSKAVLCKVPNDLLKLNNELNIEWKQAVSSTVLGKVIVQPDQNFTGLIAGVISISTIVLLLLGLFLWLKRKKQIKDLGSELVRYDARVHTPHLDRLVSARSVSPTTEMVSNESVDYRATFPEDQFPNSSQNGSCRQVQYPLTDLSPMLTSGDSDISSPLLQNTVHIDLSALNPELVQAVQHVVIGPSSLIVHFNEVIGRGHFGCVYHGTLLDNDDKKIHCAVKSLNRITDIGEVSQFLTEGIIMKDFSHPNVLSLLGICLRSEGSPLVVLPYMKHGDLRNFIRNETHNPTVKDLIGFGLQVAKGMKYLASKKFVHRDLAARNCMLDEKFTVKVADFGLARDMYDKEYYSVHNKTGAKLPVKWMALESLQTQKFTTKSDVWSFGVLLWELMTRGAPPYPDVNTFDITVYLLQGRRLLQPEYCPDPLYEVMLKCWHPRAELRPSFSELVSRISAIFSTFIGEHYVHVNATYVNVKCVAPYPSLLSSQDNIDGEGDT
Hepatocyte growth factor receptor (Mus musculus), sequence (P16056 whole entry): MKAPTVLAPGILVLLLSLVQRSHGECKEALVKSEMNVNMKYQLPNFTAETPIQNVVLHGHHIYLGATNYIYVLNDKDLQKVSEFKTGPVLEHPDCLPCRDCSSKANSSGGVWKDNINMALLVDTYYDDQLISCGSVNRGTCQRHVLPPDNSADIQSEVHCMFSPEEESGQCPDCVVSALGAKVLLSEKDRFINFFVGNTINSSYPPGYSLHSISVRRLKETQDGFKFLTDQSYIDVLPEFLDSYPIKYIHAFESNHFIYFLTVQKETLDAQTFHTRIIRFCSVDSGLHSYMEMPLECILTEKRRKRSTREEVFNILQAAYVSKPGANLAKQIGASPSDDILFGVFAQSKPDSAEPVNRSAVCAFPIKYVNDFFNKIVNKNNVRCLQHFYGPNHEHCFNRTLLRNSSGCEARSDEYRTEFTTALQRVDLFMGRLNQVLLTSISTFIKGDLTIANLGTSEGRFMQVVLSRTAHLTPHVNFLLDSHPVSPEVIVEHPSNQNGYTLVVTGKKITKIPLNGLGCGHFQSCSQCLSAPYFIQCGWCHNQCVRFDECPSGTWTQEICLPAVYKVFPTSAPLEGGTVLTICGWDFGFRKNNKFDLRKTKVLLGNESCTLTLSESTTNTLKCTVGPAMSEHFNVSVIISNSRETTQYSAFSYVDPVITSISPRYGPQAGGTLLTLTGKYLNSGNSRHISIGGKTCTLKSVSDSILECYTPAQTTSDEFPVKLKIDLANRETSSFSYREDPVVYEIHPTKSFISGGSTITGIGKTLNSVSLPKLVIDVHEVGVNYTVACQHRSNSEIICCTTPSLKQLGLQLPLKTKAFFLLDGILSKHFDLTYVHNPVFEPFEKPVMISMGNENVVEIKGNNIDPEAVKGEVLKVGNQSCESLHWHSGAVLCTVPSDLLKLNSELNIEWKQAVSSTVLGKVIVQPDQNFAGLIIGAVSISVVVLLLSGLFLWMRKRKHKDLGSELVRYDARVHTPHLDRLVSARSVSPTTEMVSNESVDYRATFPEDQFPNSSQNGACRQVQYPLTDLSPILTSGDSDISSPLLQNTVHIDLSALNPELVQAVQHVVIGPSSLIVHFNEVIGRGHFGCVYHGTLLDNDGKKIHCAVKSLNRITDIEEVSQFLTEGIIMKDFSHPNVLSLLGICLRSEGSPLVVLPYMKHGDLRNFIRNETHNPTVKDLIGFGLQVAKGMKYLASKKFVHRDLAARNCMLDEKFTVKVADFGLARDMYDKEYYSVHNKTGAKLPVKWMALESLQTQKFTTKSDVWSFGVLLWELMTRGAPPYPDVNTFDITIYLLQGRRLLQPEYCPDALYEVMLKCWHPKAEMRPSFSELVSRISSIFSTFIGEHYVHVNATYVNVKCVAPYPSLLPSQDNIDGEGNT

CC(C)CC(=O)c1c(O)c(C=O)c(O)c(C=O)c1O
inhibition [1]: inactive

CC(C)C[C@@H](c1c(O)c(C=O)c(O)c(C=O)c1O)[C@@]1(C)CC[C@@H]2[C@@H]1[C@H]1[C@@H](CC[C@@]2(C)O)C1(C)C
inhibition [1]: Active

CC(C)C[C@H](c1c(O)c(C=O)c(O)c(C=O)c1O)[C@@]1(C)CC[C@@H]2[C@@H]1[C@H]1[C@@H](CC[C@@]2(C)O)C1(C)C
inhibition [1]: Active

CC1(C)[C@H]2[C@H]3[C@@H](CC[C@]3(C)O)[C@](C)(O)CC[C@H]21
inhibition [1]: inactive

C[C@@H]1CC[C@@H]2[C@@H]1[C@H]1[C@@H](CC[C@@]2(C)O)C1(C)C
inhibition [1]: inactive

Cc1c(O)c(C=O)c(O)c(C(=O)CC(C)C)c1O
inhibition [1]: inactive

CC(C)CC(=O)c1c(O)c(C=O)c(O)c(C[C@@]2(C)CC[C@@H]3[C@@H]2[C@H]2[C@@H](CC[C@@]3(C)O)C2(C)C)c1O [EUCALYPTIN A]
inhibition [2]: inactive
inhibition [3]: Dose-dependent effect
inhibition [4]: > 50%
inhibition [5]: Dose-dependent effect
inhibition [6]: > 50%
inhibition [7]: 80%
inhibition [8]: inactive
inhibition [1]: Active
inhibition [9]: Active
inhibition [10]: Dose-dependent effect
inhibition [11]: Dose-dependent effect
IC50 [12]: > 50 µM
inhibition [13]: Dose-dependent effect
inhibition [14]: > 50%
inhibition [15]: > 50%
inhibition [16]: Active
inhibition [17]: Dose-dependent effect
inhibition [18]: Dose-dependent effect
inhibition [19]: Active
